In patent US10821115B2, “Compounds that inhibit Mcl-1 protein” (priority 2017, dated 2020):
pIC50: −log10 of the molar value. Like-named read-outs stand apart in the source and are kept apart here.

Assays:
[1] = target: recombinant human Mcl-1 (residues 171-327) / Bim interaction (Homo sapiens (Human), UniProt Q07820); assay: biochemical; type: binding; conditions: read-out: Mcl-1 HTRF IC50
[2] = tested on: human multiple myeloma cell line, OPM-2; assay: Cell viability assay (OPM-2 10 FBS), CellTiter-Glo; type: cell-based
In short: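 IC50 values come from 4-parameter logistic fits of luminescence signals reflecting cell viability. Treatment lasted 16 h at 37 °C in complete medium with 10% FBS, starting from 3000 cells/well.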

[3] = 0.1 nM Mcl-1(171-327), 0.05 nM biotin-Bim (51-76)
[4] = Homo sapiens, OPM-2, 16 h, read-out: OPM-2 10% FBS IC50 IP, OPM-2 cells, 10% FBS, 16 h incubation
[5] = TR-FRET, Mcl-1(171-327) / biotin-Bim (51-76)
[6] = Homo sapiens, OPM-2, 16 h, read-out: OPM-2 10% FBS IC50 IP, OPM-2 cells, 10% FBS, 16 h, CellTiter-Glo
[7] = read-out: OPM-2 10% FBS IC50 IP, OPM-2 cells, 10% FBS, 16 h, CellTiter-Glo

Sequence of recombinant human Mcl-1 (residues 171-327) / Bim interaction (Q07820 171-327): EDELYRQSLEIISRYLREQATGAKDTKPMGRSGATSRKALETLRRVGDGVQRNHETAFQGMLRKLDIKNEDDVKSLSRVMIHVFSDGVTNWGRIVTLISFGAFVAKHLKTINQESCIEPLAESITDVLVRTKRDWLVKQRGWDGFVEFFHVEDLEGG

| SMILES | pIC50 [1, 3] | pIC50 [2, 4] | pIC50 [1, 5] | pIC50 [2, 6] | other results |
| --- | --- | --- | --- | --- | --- |
| CO[C@]1(CN2CCN3CCCC[C@@H]3C2)/C=C/C[C@H](C)[C@@H](C[C@H](C)O)S(=O)(=O)NC(=O)c2ccc3c(c2)N(C[C@@H]2CC[C@H]21)C[C@@]1(CCCc2cc(Cl)ccc21)CO3 (single isomer, unassigned) [Example 363] | 10.10 |  |  |  | pIC50 ([2]; read-out: OPM-2 10% FBS IC50 IP, OPM-2 cells, 10% FBS, 16 h incubation): 7.00 |
| CO[C@@]1(CN2CCN(C3CN(C)C3)CC2)/C=C/C[C@H](C)[C@@H](C)S(=O)(=O)NC(=O)c2ccc3c(c2)N(C[C@@H]2CC[C@H]21)C[C@@]1(CCCc2cc(Cl)ccc21)CO3 [Example 282, (1S,3′R,6′R,7′S,8′E,11′S,12′R)-6-chloro-7′-methoxy-11′,12′-dimethyl-7′-((4-(1-methyl-3-azetidinyl)-1-piperazinyl)methyl)-3,4-dihydro-2H,15′H-spiro[naphthalene-1,22′-[20]oxa[13]thia[1,14]diazatetracyclo [14.7.2.0~3,6~.0~19,24~]pentacosa[8,16,18,24]tetraen]-15′-one 13′,13′-dioxide] | 9.93 | 6.31 |  |  |  |
| COC(=O)[C@@H](C)NC(=O)C[C@]1(OC)/C=C/C[C@H](C)[C@@H](C)S(=O)(=O)NC(=O)c2ccc3c(c2)N(C[C@@H]2CC[C@H]21)C[C@@]1(CCCc2cc(Cl)ccc21)CO3 [Example 100528, methyl N-(((1S,3′R,6′R,7′S,8′E,11′S,12′R)-6-chloro-7′-methoxy-11′,12′-dimethyl-13′,13′-dioxido-15′-oxo-3,4-dihydro-2H-spiro[naphthalene-1,22′-[20]oxa[13]thia[1,14]diazatetracyclo [14.7.2.0~3,6~.0~19,24~]pentacosa[8,16,18,24]tetraen]-7′-yl)acetyl)-D-alaninate] |  |  | 9.86 | 6.59 |  |
| C[C@@H]1[C@@H](C)CCC[C@](O)(CC(=O)N(C)C(C)(C)C)[C@@H]2CC[C@H]2CN2C[C@@]3(CCCc4cc(Cl)ccc43)COc3ccc(cc32)C(=O)NS1(=O)=O (single isomer, unassigned) [Example 100143] |  |  | 8.73 |  | pIC50 [2, 7]: 5.49 |
| CO[C@@]1(CN2CCN(Cc3noc(C)n3)CC2)/C=C/C[C@H](C)[C@@H](C)S(=O)(=O)NC(=O)c2ccc3c(c2)N(C[C@@H]2CC[C@H]21)C[C@@]1(CCCc2cc(Cl)ccc21)CO3 [Example 316, (1S,3′R,6′R,7′S,8′E,11′S,12′R)-6-chloro-7′-methoxy-11′,12′-dimethyl-7′-((4-((5-methyl-1,2,4-oxadiazol-3-yl)methyl)-1-piperazinyl)methyl)-3,4-dihydro-2H,15′H-spiro[naphthalene-1,22′-[20]oxa[13]thia[1,14]diazatetracyclo [14.7.2.0~3,6~.0~19,24~]pentacosa[8,16,18,24]tetraen]-15′-one 13′,13′-dioxide] | 9.78 | 7.33 |  |  |  |
| CO[C@]1(CCN2CCN3CCCC[C@@H]3C2)/C=C/C[C@H](C)[C@@H](C)S(=O)(=O)NC(=O)c2ccc3c(c2)N(C[C@@H]2CC[C@H]21)C[C@@]1(CCCc2cc(Cl)ccc21)CO3 [Example 100591, (1S,3′R,6′R,7′R,8′E,11′S,12′R)-6-chloro-7′-methoxy-11′,12′-dimethyl-7′-(2-((9aR)-octahydro-2H-pyrido[1,2-a]pyrazin-2-yl)ethyl)-3,4-dihydro-2H,15′H-spiro[naphthalene-1,22′-[20]oxa[13]thia[1,14]diazatetracyclo [14.7.2.0~3,6~.0~19,24~]pentacosa[8,16,18,24]tetraen]-15′-one 13′,13′-dioxide] |  |  | 10.12 | 7.22 |  |
| COCCN(C)C1CN(C[C@]2(OC)/C=C/C[C@H](C)[C@@H](C)S(=O)(=O)NC(=O)c3ccc4c(c3)N(C[C@@H]3CC[C@H]32)C[C@@]2(CCCc3cc(Cl)ccc32)CO4)C1 [Example 260, (1S,3′R,6′R,7′S,8′E,11′S,12′R)-6-chloro-7′-methoxy-7′-((3-((2-methoxyethyl)(methyl)amino)-1-azetidinyl)methyl)-11′,12′-dimethyl-3,4-dihydro-2H,15′H-spiro[naphthalene-1,22′-[20]oxa[13]thia[1,14]diazatetracyclo [14.7.2.0~3,6~.0~19,24~]pentacosa[8,16,18,24]tetraen]-15′-one 13′,13′-dioxide] | 10.08 | 6.99 |  |  |  |
| CO[C@@]1(CC(=O)N(C)C(C)(C)C)/C=C/C[C@H](C)[C@@H](C)S(=O)(=O)NC(=O)c2ccc3c(c2)N(C[C@@H]2CC[C@H]21)C[C@@]1(CCCc2cc(Cl)ccc21)CO3 [Example 100008, 2-((1 S,3′R,6′R,7′S,8′E,11′S, 12′R)-6-chloro-7′-methoxy-11′,12′-dimethyl-13′,13′-dioxido-15′-oxo-3,4-dihydro-2H-spiro[naphthalene-1,22′-[20]oxa[13]thia[1,14]diazatetracyclo[14.7.2.0-3,6˜.0˜19,24˜]pentacosa[8,16,18,24]tetraen]-7′-yl)-N-methyl-N-(2-methyl-2-propanyl)acetamide] |  |  | 9.77 | 6.27 |  |
| COCCN(C)S(=O)(=O)C[C@]1(O)CCC[C@H](C)[C@@H](C)S(=O)(=O)NC(=O)c2ccc3c(c2)N(C[C@@H]2CC[C@H]21)C[C@@]1(CCCc2cc(Cl)ccc21)CO3 [Example 100165, 1-((1S,3′R,6′R,7′S,11′S,12′R)-6-chloro-7′-hydroxy-11′,12′-dimethyl-13′,13′-dioxido-15′-oxo-3,4-dihydro-2H-spiro[naphthalene-1,22′-[20]oxa[13]thia[1,14]diazatetracyclo [14.7.2.0~3,6~.0~19,24~]pentacosa[16,18,24]trien]-7′-yl)-N-(2-methoxyethyl)-N-methylmethanesulfonamide] |  |  | 9.34 | 6.24 |  |
| C[C@@H]1[C@@H](C)CCC[C@@](O)(CS(=O)(=O)N(C)C)[C@@H]2CC[C@H]2CN2C[C@@]3(CCCc4cc(Cl)ccc43)COc3ccc(cc32)C(=O)NS1(=O)=O [Example 100100, 1-((1S,3′R,6′R,7′S,11′S,12′R)-6-chloro-7′-hydroxy-11′,12′-dimethyl-13′,13′-dioxido-15′-oxo-3,4-dihydro-2H-spiro[naphthalene-1,22′-[20]oxa[13]thia[1,14]diazatetracyclo [14.7.2.0~3,6~.0~19,24~]pentacosa[16,18,24]trien]-7′-yl)-N,N-dimethylmethanesulfonamide] |  |  |  |  | pIC50 [1]: 8.68; pIC50 [2, 7]: 5.88 |
| C[C@@H]1[C@@H](C)C/C=C/[C@@](O)(c2cnccc2F)[C@@H]2CC[C@H]2CN2C[C@@]3(CCCc4cc(Cl)ccc43)COc3ccc(cc32)C(=O)NS1(=O)=O (single isomer, unassigned) [Example 100536] |  |  | 9.69 | 6.08 |  |
| CO[C@@]1(CC(=O)N2CC[C@@H](N(C)C)C2)/C=C/C[C@H](C)[C@@H](C)S(=O)(=O)NC(=O)c2ccc3c(c2)N(C[C@@H]2CC[C@H]21)C[C@@]1(CCCc2cc(Cl)ccc21)CO3 (single isomer, unassigned) [Example 100318] |  |  | 10.02 | 6.94 |  |
| C[C@@H]1[C@@H](C)C/C=C/[C@](O)(c2ccncc2F)[C@@H]2CC[C@H]2CN2C[C@@]3(CCCc4cc(Cl)ccc43)COc3ccc(cc32)C(=O)NS1(=O)=O [Example 100368, (1S,3′R,6′R,7′R,8′E,11′S,12′R)-6-chloro-7′-(3-fluoro-4-pyridinyl)-7′-hydroxy-11′,12′-dimethyl-3,4-dihydro-2H,15′H-spiro[naphthalene-1,22′-[20]oxa[13]thia[1,14]diazatetracyclo [14.7.2.0~3,6~.0~19,24~]pentacosa[8,16,18,24]tetraen]-15′-one 13′,13′-dioxide] |  |  | 9.42 | 6.21 |  |
| CO[C@]1(c2nccs2)/C=C/C[C@H](C)[C@@H](C)S(=O)(=O)NC(=O)c2ccc3c(c2)N(C[C@@H]2CC[C@H]21)C[C@@]1(CCCc2cc(Cl)ccc21)CO3 (single isomer, unassigned) [Example 100522] |  |  | 9.84 | 6.27 |  |
| CO[C@@]1(CN2CCN(CC(F)F)CC2)/C=C/C[C@H](C)[C@@H](C)S(=O)(=O)NC(=O)c2ccc3c(c2)N(C[C@@H]2CC[C@H]21)C[C@@]1(CCCc2cc(Cl)ccc21)CO3 [Example 306, (1S,3′R,6′R,7′S,8′E,11′S,12′R)-6-chloro-7′-((4-(2,2-difluoroethyl)-1-piperazinyl)methyl)-7′-methoxy-11′,12′-dimethyl-3,4-dihydro-2H,15′H-spiro[naphthalene-1,22′-[20]oxa[13]thia[1,14]diazatetracyclo [14.7.2.0~3,6~.0~19,24~]pentacosa[8,16,18,24]tetraen]-15′-one 13′,13′-dioxide] | 9.55 | 6.61 |  |  |  |
| COC[C@@H]1[C@@H](C)C/C=C/[C@](CN2CCN(C(C)(C)C)CC2)(OC)[C@@H]2CC[C@H]2CN2C[C@@]3(CCCc4cc(Cl)ccc43)COc3ccc(cc32)C(=O)NS1(=O)=O [Example 174, (1S,3′R,6′R,7′S,8′E,11′S,12′S)-7′-((4-tert-butyl-1-piperazinyl)methyl)-6-chloro-7′-methoxy-12′-(methoxymethyl)-11′-methyl-3,4-dihydro-2H,15′H-spiro[naphthalene-1,22′-[20]oxa[13]thia[1,14]diazatetracyclo [14.7.2.0~3,6~.0~19,24~]pentacosa[8,16,18,24]tetraen]-15′-one 13′,13′-dioxide] | 9.49 | 6.19 |  |  |  |
